From patent US20050124618A1, “Methods of modulating angiogenesis and cancer cell proliferation” (priority 2003, published 2005)
“Also recorded” adds a separate entry of the source.

Assays:
20-HETE [1] = conditions: cited from earlier work
20-HETE [2] = assay: 20-HETE formation in electrically stimulated skeletal (TA) muscle of rats; assay type: in vivo, rat; conditions: 7 days of electrical stimulation; chronic treatment
Experimental: (§1) Experimental protocols and tissue preparation: After a 24-h recovery period, the implanted stimulator was activated by momentary closure of the magnetic reed switch using a small hand-held magnet. […] Contractions of the extensor digitorum longus (EDL) and tibialis anterior (TA) muscles were automatically initiated at 9 AM each day and sustained for 8 h/day over a consecutive 7-day period. At the end of the stimulation period, the animals were euthanized by an overdose of pentobarbital sodium (100 mg/kg ip), and the EDL and TA muscles were harvested for analysis as previously described (Greene A S et al., Hypertension 15: 779-783, 1990; and Parmentier J H et al., Hypertension 37: 623-629, 2001).
The rats were divided in four groups. […] This dose was chosen based on our previous results (Kehl F et al., Am J Physiol Heart Circ Physiol 282: H1556-H1565, 2002).
To determine the contribution of VEGF to the angiogenesis induced by electrical stimulation, six rats in group 3 were treated with 3 mg/kg ip injections of a monoclonal VEGF-neutralizing antibody (Texas Biotechnology; Houston, Tex.) during the period of electrical stimulation. The protocol for administration of VEGF-neutralizing antibody was modified from Zheng W et al. (Circ Res 85: 192-198, 1999), and this dose was based on our previous results (Amaral S L et al., Microcirculation 8: 57-67, 2001). After the stimulation period was started, the rats received intraperitoneal injections on days 3, 5, and 7 (0.6 mg/100 g).
Muscle preparations for measurement of 20-HETE: The 100-200 mg of frozen TA muscle were homogenized in a solution containing 1 ml of acidified water and 50 μl of an internal standard, WIT-002, which was synthesized and kindly provided by Taisho Pharmaceutical. Ethyl acetate (3 ml, Fisher Scientific; Pittsburgh, Pa.) was added to the mixture and gently vortexed. The homogenized tissues were then centrifuged at 3,000 revolutions/min for 2 min. With the use of a glass Pasteur pipet, the top layer was removed and transferred to a sterile glass vial, and the samples were dried under nitrogen and stored at −80° C.
Labeling of samples and fluorescent detection of 20-HETE: Detection of 20-HETE was performed as previously described (Ma Y H et al., Am J Physiol Regul Integr Comp Physiol 267: R579-R589, 1994). Samples, which were extracted and dried under argon, were resuspended in 20 μl of acetonitrile containing 36.4 mM 2-(2,3-napthalimino)ethyl trifluoromethanesulfonate, and N,N-diisopropylethylamine (10 μl) was added as a catalyst. The sample was reacted for 30 min at room temperature, dried under argon, resuspended in 1 ml of 40% acetonitrile-water, and applied to a Sep-Pak Vac column. The column was washed with 6 ml of 50% acetonitrile-water solution to remove unreacted dye, eluted with 500 μl of ethyl acetate, dried under argon, and resuspended in 100 μl of the HPLC mobile phase [methanol-water-acetic acid, 82:18:0.1 (vol/vol)]. A 25-μl aliquot of the derivatized sample was separated on a 4.6×250-mm Symmetry C18 reverse-phase HPLC column (Waters) isocratically at a rate of 1.3 ml/min using methanol-water-acetic acid (82:18:0.1 (vol/vol)) as the mobile phase. Fluorescence intensity monitored using an in-line fluorescence detector (model number L-7480, Hitachi; Naperville, Ill.) at medium gain sensitivity. The amount of 20-HETE in the sample was determined by comparing the area of the 20-HETE peak with that of the internal standard (WIT-002).

[3] = system: extensor digitorum longus (EDL) and tibialis anterior (TA) muscles; assay: Vessel density of EDL and TA muscles after 7 days of electrical stimulation; assay type: in vivo, rat
Experimental: as §1
Tissue harvest and morphological analysis of vessel density: The stimulated and contralateral muscles were removed, weighed, and rinsed in physiological salt solution. A 300-mg sample was taken from the rostral portion of the TA muscle and frozen in liquid nitrogen for Western blot (100 mg) and HPLC (200 mg) analysis for measurement of VEGF protein expression and 20-HETE formation, respectively. The remaining TA and EDL muscles were lightly fixed in a 0.25% formalin solution overnight. The muscles were sectioned via a manual microtome to a thickness of about 100 μm by securing the tendons and slicing parallel to the longitudinal orientation of the muscle fibers. From every animal, two slices of each EDL muscle and three slices of each TA muscle were made. The slices were than immersed for 2 h in a solution of 25 μg/ml rhodamine-labeled Griffonia simplicifolia I (GS-I) lectin (Sigma; St. Louis, Mo. (Greene A S et al., Hypertension 15: 779-783, 1990)). Immediately after this 2-h exposure to GS-I lectin, the muscles were rinsed in physiological solution. The rinsing procedure was repeated after 15 and 30 min, and the muscles were rinsed in physiological saline solution for 12 h (overnight, at 4° C.). On the next day, the slices were mounted on microscope slides with a water-soluble mounting medium consisting of toluene and acrylic resin (SP ACCU-MOUNT 280, Baxter Scientific).
The labeled sections were visualized using a video fluorescent microscope system (Olympus ULWD CD Plan, ×20 objective, 1.6 cm working distance and 0.4 numerical aperture) with epi-illumination, as previously described (Parmentier J H et al., Hypertension 37: 623-629, 2001). In the present study, 10-15 and 20-25 representative fields were selected for study from each EDL and TA muscle slice, respectively. Each field was converted to a digitized image (DT2801 Data Translation; Marlboro, Mass.) and stored as an 8-bit/pixel image file with a resolution of 512×512 pixels. Morphometric analysis of the scanned histochemical sections was done as previously described (Parmentier J H et al., Hypertension 37: 623-629, 2001).
Data analysis and statistics: For each muscle, the vessel counts of all the selected fields (10-15 scans×2 slices for each EDL muscle; 20-25 scans×3 slices for each TA muscle) were averaged to a single vessel density. Vessel density was expressed in terms of the mean number of vessel-grid intersections per microscope field (0.224 mm^2). For each experimental group, the measured vessel density and 20-HETE formation of the stimulated muscle was compared with its unstimulated counterpart as well as with age-matched controls. All values are presented as means±SE. The significance of differences in values measured in the same animal was evaluated using a two-factor ANOVA (drug×stimulation) with repeated measures on one factor (stimulation). Significant differences were further investigated using a post hoc test (Tukey's).

VEGF = assay: Western blot of VEGF protein expression in TA muscle; assay type: in vivo, rat
Experimental: Western blot analysis to detect the presence of VEGF protein: The 100-mg TA muscle specimens were homogenized, and the protein was suspended in potassium buffer (10 mM). Five micrograms of protein (as determined by a protein assay kit, Bio-Rad; Hercules, Calif.) from the TA and a tumor cell line known to express VEGF at high levels (C6, American Type Culture Collection, 107-CCL) were separated on a 12% denaturing polyacrylamide gel. The gels were transferred to a nitrocellulose membrane, which was blocked overnight in 5% nonfat dry milk diluted in Tris-buffered saline (50 mM Tris and 750 mM NaCl, pH 8) with 0.08% Tween 20 (Bio-Rad). The blots were then incubated with a […] antibody to a peptide derived from the human VEGF sequence (1:1,000 dilution, clone G143-850, Pharmingen) for 2 h at room temperature. Washed blots were then incubated with goat anti-mouse secondary antibody at a dilution of 1:1,000 for 1 h at room temperature and then subjected to a SuperSignal West Dura chemiluminescence substrate (Pierce; Rockford, Ill.) detection system. Membranes were exposed to X-ray film (Fuji Medical; Stamford, Conn.) for 15 to 30 s and developed using a Kodak M35 X-Omat processor. For the quantitative VEGF analysis, film was always exposed for a period of time that ensured that all signals were within the linear range of the detection of the film. The VEGF band intensity was quantified using a morphometry imaging system (Metamorph, Universal Imaging; West Chester, Pa.), and values are expressed as a percentage of the C6 tumor cell standard.

[4] = chronic treatment, 7 days electrical stimulation

For `Nn1nnc2ccccc21` [ABT, 1-aminobenzotriazole], the “ability to reduce 20-HETE levels in vivo” value (20-HETE [1]) is listed as “reduce 20-HETE levels in vivo”, the “effect on the increase of 20-HETE formation induced by electrical stimulation” value (20-HETE [2]) is listed as “blocked” and the “effect on the increase in vessel density (angiogenesis) induced by electrical stimulation” value ([3]; 7 days, HET0016 2 mg kg−1 day−1, ABT 50 mg kg−1 day−1) is listed as “blocked; also recorded: attenuated”. For the same compound, the “vessel density, EDL, unstimulated side” value ([3]; chronic treatment, 7 days) was 111±7.4 number of vessel intersections, the “vessel density, TA, unstimulated side” value ([3]; chronic treatment, 7 days) was 99.7±4.72 number of vessel intersections and the “vessel density, EDL, stimulated side” value [3, 4] was 121±4.35 number of vessel intersections. The “vessel density, TA, stimulated side” value [3, 4] was 119.5±4.51 number of vessel intersections, the “effect on increases in VEGF protein expression induced by electrical stimulation” value (VEGF; 7 days stimulation) was “did not block” and the “effect on baseline VEGF expression” value (VEGF; 7 days treatment) was “Neither HET0016 nor ABT had any effect”.
